{"source": "paper PMC10157890", "about": "“Lysine Deacetylase Substrate Selectivity: Distinct Interaction Surfaces Drive Positive and Negative Selection for Residues Following Acetyllysine” (Biochemistry, 2023)", "data": [{"target": "T1, Full-length human KDAC8 (Homo sapiens, UniProt Q9BY41)", "T1 construct": "Full-length human KDAC8 (UniProtKB Q9BY41) was recombinantly expressed fused to a C-terminal His6 tag; TEV protease cleavage site (C); His6 (C); made in house; host or cells: Escherichia coli", "T1 sequence (Q9BY41 1-377)": "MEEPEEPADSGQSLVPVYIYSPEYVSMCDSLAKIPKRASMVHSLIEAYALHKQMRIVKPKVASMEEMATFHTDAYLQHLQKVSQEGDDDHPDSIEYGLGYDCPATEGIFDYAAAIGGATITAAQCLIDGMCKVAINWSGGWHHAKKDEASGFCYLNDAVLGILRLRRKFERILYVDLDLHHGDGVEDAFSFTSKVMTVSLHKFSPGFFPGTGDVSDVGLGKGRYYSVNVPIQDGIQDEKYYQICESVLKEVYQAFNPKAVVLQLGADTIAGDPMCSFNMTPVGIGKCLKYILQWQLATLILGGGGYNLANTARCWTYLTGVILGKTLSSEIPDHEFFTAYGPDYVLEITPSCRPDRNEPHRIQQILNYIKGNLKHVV", "test": "Activity of KDAC8 with putative substrate peptides (verification of substrate preferences)", "type": "biochemical", "conditions": "endpoint, 100 μM peptide, 50–200 nM KDAC, 25 °C, pH 7.6, 15–60 min, buffer also containing 100 mM KCl; average ± SD; SD", "protocol": "(§1) Peptide substrates were synthesized to >95% purity (GenScript) with N-terminal acetylation and C-terminal amidation. For endpoint experiments, 100 μM peptide substrates were reacted with 50–200 nM KDAC at 25 °C at pH 7.6 for 15–60 min. Deacetylation was measured using a fluorescamine-based assay that was previously described in detail.[18] Reported raw activity for each enzyme–substrate pair is the average and standard deviation for n ≥ 4 unless otherwise noted. Normalized activity was calculated by defining the activity of each KDAC with the FRK^acWR peptide equal to 1. Statistical significance was determined by calculating p values using two-tailed t-tests, assuming similar variance. The significance threshold was set at p ≤ 0.01 with the Bonferroni correction for multiple testing. Kinetic parameters were determined for a subset of enzyme–substrate pairs. In these experiments, 50–200 nM KDAC was reacted with ≥5 substrate concentrations from 10 to 2500 nM and ≥3 timepoints at intervals of 3–20 min were collected for each substrate concentration. Deacetylation was measured using the same method as the endpoint experiments, and KM and kcat were calculated from the observed activity of each reaction as previously described.[18] Activity assays with peptides for verification of substrate preferences were performed as for endpoint experiments, except in a buffer also containing 100 mM KCl. Statistical analysis of the correlation of the presence of particular substrate residues with activity was performed using Fisher’s exact test with a significance threshold of p ≤ 0.05.\n(§2) We performed a similar experiment for KDAC8, this time using substrates that have been described as potential KDAC8 substrates from cell-based studies or which contained residues in the +1 and/or +2 positions that were identified to enhance activity of KDAC8. […] In addition, we also considered phenylalanine, as we did for KDAC6. Here, we looked at the correlation between peptides having any of these features and activity. While the result was less striking than for KDAC6, there was still a positive correlation between the presence of the identified residues and activity (Table 3; p = 0.048). Although we have identified only a portion of the interactions that likely contribute to substrate selectivity for these enzymes, these interactions correlate with a statistically significant increase in activity with peptides from potential biological substrates in an unbiased background of residues in other positions.", "units": {"specific activity, KDAC8 with putative substrates": "s^–1"}, "values": [{"substance": "AFGK^acYCR", "specific activity, KDAC8 with putative substrates": "0.0029 ± 0.0004"}, {"substance": "GRAK^acYWL [acetyllysine peptide from E3 SUMO-protein ligase RanBP2 (P49792)]", "specific activity, KDAC8 with putative substrates": "0.007 ± 0.003"}, {"substance": "LGGK^acQRA [acetyllysine peptide from retinoic acid-induced protein 1 (Q7Z5J4)]", "specific activity, KDAC8 with putative substrates": "0.0006 ± 0.0004"}, {"substance": "PLWK^acGIG [acetyllysine peptide from regulator of nonsense transcripts 1 (Q92900)]", "specific activity, KDAC8 with putative substrates": "0.0035 ± 0.0021"}, {"substance": "RFTK^acCLR [acetyllysine peptide from steroid hormone receptor ERR1 (P11474)]", "specific activity, KDAC8 with putative substrates": "0.0030 ± 0.0016"}, {"substance": "RIPK^acEQW [acetyllysine peptide from ATP-dependent 6-phosphofructokinase, platelet type (Q01813)]", "specific activity, KDAC8 with putative substrates": "0.0031 ± 0.0015"}, {"substance": "RMFK^acQFN [acetyllysine peptide from transcription intermediary factor 1-β (Q13263)]", "specific activity, KDAC8 with putative substrates": "0.015 ± 0.014"}]}, {"target": "T1, Full-length human KDAC8", "test": "Activity of KDAC8 with putative substrate peptides (verification of substrate preferences)", "type": "biochemical", "conditions": "endpoint, 100 μM peptide, buffer also containing 100 mM KCl; limit of reliable detection 0.0004 s^–1", "protocol": "as §1, §2", "values": [{"substance": "EIGK^acTLA", "specific activity, KDAC8 with putative substrates (no activity above limit)": "– (– indicates no activity above the limit of reliable detection (0.0004 s^–1))"}, {"substance": "EVGK^acLLN [acetyllysine peptide from centromere protein F (P49454)]", "specific activity, KDAC8 with putative substrates (no activity above limit)": "– (– indicates no activity above the limit of reliable detection (0.0004 s^–1))"}, {"substance": "VGGK^acDFE [acetyllysine peptide from PDZ and LIM domain protein 1 (O00151)]", "specific activity, KDAC8 with putative substrates (no activity above limit)": "– (– indicates no activity above the limit of reliable detection (0.0004 s^–1))"}]}, {"target": "T2, full-length human KDAC6 (Homo sapiens, UniProt Q9UBN7)", "T2 construct": "A pFastbac1 construct containing full-length human KDAC6 (UniProtKB Q9UBN7) with a C-terminal His6 tag; His6 (C); made in house; host or cells: ExpiSf9 insect cells (baculovirus)", "T2 sequence (Q9UBN7 1-1215)": "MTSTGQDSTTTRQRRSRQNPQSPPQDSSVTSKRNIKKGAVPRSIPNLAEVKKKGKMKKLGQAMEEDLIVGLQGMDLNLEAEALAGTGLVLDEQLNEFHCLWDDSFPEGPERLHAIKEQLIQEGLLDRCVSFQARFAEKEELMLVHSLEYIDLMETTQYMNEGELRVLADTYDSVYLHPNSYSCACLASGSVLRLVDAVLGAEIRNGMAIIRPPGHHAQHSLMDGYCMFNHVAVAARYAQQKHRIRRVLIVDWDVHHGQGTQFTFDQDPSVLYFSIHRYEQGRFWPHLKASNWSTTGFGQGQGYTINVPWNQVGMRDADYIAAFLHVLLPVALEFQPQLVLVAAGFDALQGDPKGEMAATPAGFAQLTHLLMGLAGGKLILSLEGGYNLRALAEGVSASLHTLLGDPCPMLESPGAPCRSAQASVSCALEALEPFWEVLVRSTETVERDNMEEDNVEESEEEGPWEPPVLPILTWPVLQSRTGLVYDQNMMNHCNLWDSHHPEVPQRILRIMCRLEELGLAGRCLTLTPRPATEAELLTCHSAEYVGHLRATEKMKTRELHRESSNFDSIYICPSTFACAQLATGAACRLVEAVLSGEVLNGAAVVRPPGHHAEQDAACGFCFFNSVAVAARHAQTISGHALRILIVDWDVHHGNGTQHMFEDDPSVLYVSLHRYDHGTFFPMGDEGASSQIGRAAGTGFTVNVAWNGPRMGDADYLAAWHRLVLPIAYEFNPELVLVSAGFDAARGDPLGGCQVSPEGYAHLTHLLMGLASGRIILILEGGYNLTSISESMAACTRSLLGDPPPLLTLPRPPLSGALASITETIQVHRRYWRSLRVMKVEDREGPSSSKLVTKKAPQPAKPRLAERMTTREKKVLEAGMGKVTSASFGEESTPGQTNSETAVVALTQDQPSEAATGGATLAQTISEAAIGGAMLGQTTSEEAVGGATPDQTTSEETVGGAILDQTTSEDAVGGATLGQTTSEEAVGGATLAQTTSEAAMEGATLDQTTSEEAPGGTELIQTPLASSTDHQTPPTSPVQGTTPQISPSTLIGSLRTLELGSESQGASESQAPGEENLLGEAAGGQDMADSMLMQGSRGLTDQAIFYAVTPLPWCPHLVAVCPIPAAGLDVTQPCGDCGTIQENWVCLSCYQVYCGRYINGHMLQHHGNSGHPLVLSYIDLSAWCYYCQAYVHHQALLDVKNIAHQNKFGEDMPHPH", "test": "Activity of KDAC6 with putative substrate peptides (verification of substrate preferences)", "type": "biochemical", "conditions": "endpoint, 100 μM peptide, 50–200 nM KDAC, 25 °C, pH 7.6, 15–60 min, buffer also containing 100 mM KCl; average ± SD; SD", "protocol": "as §1\n(§3) In contrast with the peptides tested thus far, which were all derivatives of a single substrate, these panels consisted of peptides derived from human proteins in which the lysine residue is known to be acetylated in cells.[3],[5],[42],[50]−[72] For each enzyme, peptides were included either because they contained an acetyllysine that has been identified as a putative substrate of the KDAC from published cellular studies and/or because the peptide contained a residue that appeared to drive KDAC activity in our analysis. For KDAC6, we observed that of the set of peptides that were tested, six contained tryptophan or tyrosine directly after the acetyllysine. Remarkably, all of these peptides appeared in the top seven most reactive substrates tested (Table 2). Assuming that phenylalanine would behave similarly to tryptophan and tyrosine, we determined that there was a statistically significant correlation between whether or not a peptide was deacetylated by KDAC6 and the presence of tyrosine, tryptophan, or phenylalanine in the +1 position (p = 0.011). […] Thus, our conclusion that the presence of these aromatic residues in the +1 position relative to the acetyllysine is a major factor promoting KDAC6 activity has predictive utility and provides some understanding of the underlying mechanistic basis.", "units": {"specific activity, KDAC6 with putative substrates": "s^–1"}, "values": [{"substance": "AFGK^acYCR", "specific activity, KDAC6 with putative substrates": "0.20 ± 0.09"}, {"substance": "GAGK^acHVP [acetyllysine peptide from tubulin α-1A chain (P68369)]", "specific activity, KDAC6 with putative substrates": "0.06 ± 0.03"}, {"substance": "GRAK^acYWL [acetyllysine peptide from E3 SUMO-protein ligase RanBP2 (P49792)]", "specific activity, KDAC6 with putative substrates": "0.100 ± 0.009"}, {"substance": "IIDK^acSQL [acetyllysine peptide from serine/threonine-protein kinase SIK2 (Q9H0K1)]", "specific activity, KDAC6 with putative substrates": "0.011 ± 0.009"}, {"substance": "LDHK^acFDL [acetyllysine peptide from tubulin α-1A chain (P68369)]", "specific activity, KDAC6 with putative substrates": "0.009 ± 0.007"}, {"substance": "LSGK^acGNP [acetyllysine peptide from catenin β-1 (P35222)]", "specific activity, KDAC6 with putative substrates": "0.042 ± 0.009"}, {"substance": "QATK^acDAG [acetyllysine peptide from heat shock 70 kDa protein 1A/1B (P0DMV8/P0DMV9)]", "specific activity, KDAC6 with putative substrates": "0.022 ± 0.006"}, {"substance": "TDGK^acVFQ [acetyllysine peptide from 60S ribosomal protein L24 (P83731)]", "specific activity, KDAC6 with putative substrates": "0.026 ± 0.024"}, {"substance": "YFSK^acHN [acetyllysine peptide from peroxiredoxin-2 (P32119), C-terminus, not amidated]", "specific activity, KDAC6 with putative substrates": "0.010 ± 0.006"}]}, {"target": "T2, full-length human KDAC6", "test": "Activity of KDAC6 with putative substrate peptides (verification of substrate preferences)", "type": "biochemical", "conditions": "endpoint, 100 μM peptide, buffer also containing 100 mM KCl; limit of reliable detection 0.0013 s^–1", "protocol": "as §1, §3", "values": [{"substance": "DLAK^acVQR [acetyllysine peptide from tubulin α-1A chain (P68369)]", "specific activity, KDAC6 with putative substrates (no activity above limit)": "– (– indicates no activity above the limit of reliable detection (0.0013 s^–1))"}, {"substance": "FFHK^acVNE [acetyllysine peptide from Mitofusin-1 (Q8IWA4)]", "specific activity, KDAC6 with putative substrates (no activity above limit)": "– (– indicates no activity above the limit of reliable detection (0.0013 s^–1))"}, {"substance": "LISK^acIRE [acetyllysine peptide from tubulin β (Q13509)]", "specific activity, KDAC6 with putative substrates (no activity above limit)": "– (– indicates no activity above the limit of reliable detection (0.0013 s^–1))"}, {"substance": "PDRK^acPFP [acetyllysine peptide from E3 SUMO-protein ligase EGR2 (P11161)]", "specific activity, KDAC6 with putative substrates (no activity above limit)": "– (– indicates no activity above the limit of reliable detection (0.0013 s^–1))"}, {"substance": "PEAK^acSLL [acetyllysine peptide from RAC-α serine/threonine-protein kinase (P31749)]", "specific activity, KDAC6 with putative substrates (no activity above limit)": "– (– indicates no activity above the limit of reliable detection (0.0013 s^–1))"}, {"substance": "PSPK^acVSD [acetyllysine peptide from tubulin β-3 chain (Q13509)]", "specific activity, KDAC6 with putative substrates (no activity above limit)": "– (– indicates no activity above the limit of reliable detection (0.0013 s^–1))"}, {"substance": "SVRK^acGIM", "specific activity, KDAC6 with putative substrates (no activity above limit)": "– (– indicates no activity above the limit of reliable detection (0.0013 s^–1))"}, {"substance": "TLSK^acLHE [acetyllysine peptide from protein diaphanous homologue 3 (Q9NSV4)]", "specific activity, KDAC6 with putative substrates (no activity above limit)": "– (– indicates no activity above the limit of reliable detection (0.0013 s^–1))"}, {"substance": "VLEK^acLGE [acetyllysine peptide from serine/threonine-protein kinase 4 (Q13043)]", "specific activity, KDAC6 with putative substrates (no activity above limit)": "– (– indicates no activity above the limit of reliable detection (0.0013 s^–1))"}]}]}
